Results taken from ChEMBL document CHEMBL1148070, “Cytotoxic saponins from New Zealand Myrsine species” (1994).
In brackets after ≈: the same amount, converted by molar mass. Activity calls are given as the source filed them. The rule behind the calls is not given here.

Tests used:
P388 = test: Cytotoxicity against mouse P388 cells; type: functional; conditions: read-out: ID50 (the source's name)
Human alphaherpesvirus 1 = test: Antiviral activity against HSV1 assessed as inhibition of virus-induced cytopathic effect 40 ug/disk; type: functional, organism-based
Poliovirus 1 = test: Antiviral activity against Human poliovirus 1 assessed as inhibition of virus-induced cytopathic effect 40 ug/disk; type: functional, organism-based

In the case of `C[C@@H]1O[C@@H](O[C@H]2[C@H](O[C@H]3CO[C@@H](O[C@H]4CC[C@]5(C)[C@H]6CC[C@]78OC[C@@]9(CC[C@](C)(C=O)C[C@H]97)[C@H](O)C[C@@]8(C)[C@]6(C)CC[C@H]5C4(C)C)[C@H](O[C@@H]4O[C@H](CO)[C@@H](O)[C@H](O)[C@H]4O)[C@H]3O)O[C@H](CO)[C@@H](O)[C@@H]2O)[C@H](O)[C@H](O)[C@H]1O` [ARDISIACRISPIN B], the IC50 (P388) is reported as 8.6 mg/L (≈ 8 µM), the inhibition (Human alphaherpesvirus 1) is reported as “Active” and the inhibition (Poliovirus 1) is reported as “Active”.

`C[C@@H]1O[C@@H](O[C@H]2[C@H](O[C@H]3CO[C@@H](O[C@H]4CC[C@]5(C)[C@H]6CC[C@]78OC(=O)[C@@]9(CCC(C)(C)C[C@H]97)[C@H](O)C[C@@]8(C)[C@]6(C)CC[C@H]5C4(C)C)[C@H](O[C@@H]4O[C@H](CO)[C@@H](O)[C@H](O)[C@H]4O)[C@H]3O)O[C@H](CO)[C@@H](O)[C@@H]2O)[C@H](O)[C@H](O)[C@H]1O` was tested, and the IC50 (P388) was 10.2 mg/L (≈ 9.49 µM), the inhibition (Human alphaherpesvirus 1) was “Active” and the inhibition (Poliovirus 1) was “Active”.

For `C[C@@H]1O[C@@H](O[C@H]2[C@H](O[C@H]3CO[C@@H](O[C@H]4CC[C@]5(C)[C@H]6CC[C@]78OC[C@@]9(CCC(C)(C)C[C@H]97)[C@H](O)C[C@@]8(C)[C@]6(C)CC[C@H]5C4(C)C)[C@H](O[C@@H]4O[C@H](CO)[C@@H](O)[C@H](O)[C@H]4O)[C@H]3O)O[C@H](CO)[C@@H](O)[C@@H]2O)[C@H](O)[C@H](O)[C@H]1O`, the IC50 (P388) was 0.85 mg/L (≈ 0.801 µM), the inhibition (Human alphaherpesvirus 1) was “Active” and the inhibition (Poliovirus 1) was “Active”.

With `CC1(C)CC[C@]23C(=O)O[C@@]4(CC[C@@H]5[C@@]6(C)CC[C@H](O[C@@H]7OC[C@H](O[C@@H]8O[C@H](CO)[C@@H](O)[C@H](O)[C@H]8O[C@@H]8OC[C@@H](O)[C@H](O)[C@H]8O)[C@H](O)[C@H]7O[C@@H]7O[C@H](CO)[C@@H](O)[C@H](O)[C@H]7O)C(C)(C)[C@@H]6CC[C@@]5(C)[C@]4(C)C[C@H]2O)[C@@H]3C1` the IC50 (P388) was over 12.5 mg/L, the inhibition (Human alphaherpesvirus 1) was “Active” and the inhibition (Poliovirus 1) was “Active”.

`C[C@@H]1O[C@@H](O[C@H]2[C@H](O[C@H]3CO[C@@H](O[C@H]4CC[C@]5(C)[C@H]6CC[C@]78OC(O)[C@@]9(CCC(C)(C)C[C@H]97)[C@H](O)C[C@@]8(C)[C@]6(C)CC[C@H]5C4(C)C)[C@H](O[C@@H]4O[C@H](CO)[C@@H](O)[C@H](O)[C@H]4O)[C@H]3O)O[C@H](CO)[C@@H](O)[C@@H]2O)[C@H](O)[C@H](O)[C@H]1O` (some centres undefined) was tested, and the IC50 (P388) was over 12.5 mg/L, the inhibition (Human alphaherpesvirus 1) was “Active” and the inhibition (Poliovirus 1) was “Active”.

For `CC1(C)CC[C@]23CO[C@@]4(CC[C@@H]5[C@@]6(C)CC[C@H](O[C@@H]7OC[C@H](O[C@@H]8O[C@H](CO)[C@@H](O)[C@H](O)[C@H]8O[C@@H]8OC[C@@H](O)[C@H](O)[C@H]8O)[C@H](O)[C@H]7O[C@@H]7O[C@H](CO)[C@@H](O)[C@H](O)[C@H]7O)C(C)(C)[C@@H]6CC[C@@]5(C)[C@]4(C)C[C@H]2O)[C@@H]3C1` [LYSIKOKIANOSIDE 1], the IC50 (P388) was 0.85 mg/L (≈ 0.812 µM), the inhibition (Human alphaherpesvirus 1) was “Active” and the inhibition (Poliovirus 1) was “Active”.

`CC1(C)[C@@H](O[C@@H]2OC[C@H](O[C@@H]3O[C@H](CO)[C@@H](O)[C@H](O)[C@H]3O[C@@H]3OC[C@@H](O)[C@H](O)[C@H]3O)[C@H](O)[C@H]2O[C@@H]2O[C@H](CO)[C@@H](O)[C@H](O)[C@H]2O)CC[C@]2(C)[C@H]3CC[C@]45OC[C@@]6(CC[C@](C)(C=O)C[C@H]64)[C@H](O)C[C@@]5(C)[C@]3(C)CC[C@@H]12` [ARDISIACRISPIN A] was tested, and the IC50 (P388) was 7 mg/L (≈ 6.6 µM), the inhibition (Human alphaherpesvirus 1) was “Active” and the inhibition (Poliovirus 1) was “Active”.

For `CC1(C)CC[C@]23C(O)O[C@@]4(CC[C@@H]5[C@@]6(C)CC[C@H](O[C@@H]7OC[C@H](O[C@@H]8O[C@H](CO)[C@@H](O)[C@H](O)[C@H]8O[C@@H]8OC[C@@H](O)[C@H](O)[C@H]8O)[C@H](O)[C@H]7O[C@@H]7O[C@H](CO)[C@@H](O)[C@H](O)[C@H]7O)C(C)(C)[C@@H]6CC[C@@]5(C)[C@]4(C)C[C@H]2O)[C@@H]3C1` (some centres undefined), the IC50 (P388) was 7 mg/L (≈ 6.58 µM), the inhibition (Human alphaherpesvirus 1) was “Active” and the inhibition (Poliovirus 1) was “Active”.
